Molecular target: S-adenosylmethionine decarboxylase proenzyme (Escherichia coli) (UniProt P0A7F6)
Assay: Tested for irreversible inhibitory activity against AdoMet-DC (S-adenosyl-methionine decarboxylase-) isolated from Escherichia coli

S-adenosylmethionine decarboxylase proenzyme (Escherichia coli), sequence (P0A7F6 whole entry, looked up): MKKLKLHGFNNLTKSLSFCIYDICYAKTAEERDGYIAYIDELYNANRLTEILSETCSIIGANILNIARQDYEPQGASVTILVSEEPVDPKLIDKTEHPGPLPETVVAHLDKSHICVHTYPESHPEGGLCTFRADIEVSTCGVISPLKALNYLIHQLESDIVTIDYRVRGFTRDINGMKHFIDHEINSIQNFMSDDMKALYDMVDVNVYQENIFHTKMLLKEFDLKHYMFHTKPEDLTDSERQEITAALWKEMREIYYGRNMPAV

| Ki [µM] | SMILES |
| --- | --- |
| 960 | Nc1ncnc2c1ncn2[C@@H]1O[C@H](CS[C@H]2CN[C@H](C(=O)O)C2)[C@@H](O)[C@H]1O |
| 669 | C[S+](C[C@H]1O[C@@H](n2cnc3c(N)ncnc32)[C@H](O)[C@@H]1O)C1CCNC1 (stereo not given in full) |
| 415 | Nc1ncnc2c1ncn2[C@@H]1O[C@H](CSC2CCNC2)[C@@H](O)[C@H]1O (stereo not given in full) |
| 478 | Nc1ncnc2c1ncn2[C@@H]1O[C@H](CS[C@@H]2CN[C@H](C(=O)O)C2)[C@@H](O)[C@H]1O |
| 18 | C[S+](C[C@H]1O[C@@H](n2cnc3c(N)ncnc32)[C@H](O)[C@@H]1O)C1C=C[C@H](N)C1 (stereo not given in full) |
